This note sets out measurements from ChEMBL document CHEMBL3045856, “Synthesis antimicrobial and anticancer activity of N-arylmethylidene-piperazine-1-carbothiohydrazide” (Med Chem Res, 2013).

Test [1] deals with HBL-100. Kind of test: Ratio of compound IC50 to methotrexate IC50 for Homo sapiens (human) HBL100 cells after 72 hr by MTT assay. In kind it is functional. Background: Tetrazolium dyes change colour on reduction, which living cells bring about.
The next test concerns HL-60. Description: Anticancer activity against Homo sapiens (human) HL60 cells after 48 hr by CC108 microcell counter analysis. In kind it is functional, cell-based. To be noted: HL-60, 48 h.
The next test concerns Vibrio cholerae. Kind of test: Antimicrobial activity against Vibrio cholerae assessed as growth inhibition after 24 hr by cup-plate method. Format: functional, organism-based.
For test [2], the system named is HBL-100. Kind of test: Anticancer activity against Homo sapiens (human) HBL100 cells after 72 hr by MTT assay. Format: functional, cell-based. Particulars: HBL-100, 72 h.
The next test concerns Bacillus subtilis. Kind of test: Antimicrobial activity against Bacillus subtilis NCIM 2921 assessed as growth inhibition after 24 hr by serial double dilution method. Format: functional, organism-based. To be noted: NCIM 2921, 24 h.
Another test deals with Escherichia coli. Kind of test: Antimicrobial activity against Escherichia coli NCIM 2068 assessed as growth inhibition after 24 hr by serial double dilution method. Format: functional, organism-based. To be noted: NCIM 2068, 24 h.
The test system of the next test is Staphylococcus aureus. Kind of test: Antimicrobial activity against Staphylococcus aureus NCIM 2079 assessed as growth inhibition after 24 hr by serial double dilution method. Format: functional, organism-based. Particulars: NCIM 2079, 24 h.
A further test relates to Aspergillus niger. Kind of test: Antimicrobial activity against Aspergillus niger assessed as growth inhibition after 24 hr by cup plate method. Format: functional, organism-based.
In a further test the test system is Candida albicans. Description: Antimicrobial activity against Candida albicans assessed as growth inhibition after 24 hr by serial double dilution method. Format: functional, organism-based.
In the next test the test system is Pseudomonas aeruginosa. Description: Antimicrobial activity against Pseudomonas aeruginosa NCIM 2967 assessed as growth inhibition after 24 hr by serial double dilution method. In kind it is functional, organism-based. To be noted: NCIM 2967, 24 h.

Regarding `Oc1ccc(/C=N/NC(=S)N2CCNCC2)cc1`, the “Ratio IC50” value in the test with HBL-100 [1] is 4.5. Also, the IC50 is 50000 nM in the test with HL-60; 1660 nM in the test with Vibrio cholerae; 180 nM in the test on HBL-100 [2]; 1620 nM with Bacillus subtilis (read-out: IC50); 1640 nM in the test on Escherichia coli; 1700 nM with Staphylococcus aureus. Also, the IC50 with Aspergillus niger came to 1970 nM; in the test on Candida albicans (read-out: IC50), 1940 nM; in the test with Pseudomonas aeruginosa, 1630 nM.

In the case of `C/C(=N\NC(=S)N1CCNCC1)c1ccc(O)cc1`, the IC50 in the test on HL-60 came out at 60000 nM; in the test on Vibrio cholerae, 1590 nM; with HBL-100 [2], 540 nM; with Bacillus subtilis (read-out: IC50) it was 3490 nM; with Escherichia coli, 3480 nM; in the test with Staphylococcus aureus it was 1580 nM. The IC50 came to 3550 nM with Aspergillus niger, 2560 nM in the test with Candida albicans (read-out: IC50) and 3510 nM in the test on Pseudomonas aeruginosa.

As to `C/C(=N\NC(=S)N1CCNCC1)c1cccc([N+](=O)[O-])c1`, the IC50 in the test with HL-60 is 62000 nM; in the test on Vibrio cholerae it was 860 nM; in the test with HBL-100 [2], 990 nM; in the test with Bacillus subtilis (read-out: IC50), 320 nM; in the test with Escherichia coli, 570 nM; in the test with Staphylococcus aureus, 860 nM. In addition, the IC50 was determined as 1560 nM in the test on Aspergillus niger, 2000 nM in the test with Candida albicans (read-out: IC50) and 600 nM with Pseudomonas aeruginosa.

As to `COc1ccc(/C=N/NC(=S)N2CCNCC2)cc1`, the IC50 in the test with Vibrio cholerae amounted to 1530 nM; in the test with HBL-100 [2] it was 1620 nM; in the test on Bacillus subtilis (read-out: IC50), 660 nM; in the test with Escherichia coli, 1590 nM; in the test on Staphylococcus aureus, 790 nM; in the test on Aspergillus niger, 2090 nM. Moreover, the IC50 with Candida albicans (read-out: IC50) amounted to 2150 nM; with Pseudomonas aeruginosa, 1570 nM.

Regarding `S=C(N/N=C/c1ccc(Cl)cc1)N1CCNCC1`, the half-inhibitory concentration (IC50) with HL-60 turned out to be 69000 nM; with Vibrio cholerae, 600 nM; in the test on HBL-100 [2] it was 1600 nM; with Bacillus subtilis (read-out: IC50) it was 130 nM; in the test on Escherichia coli, 1520 nM; in the test on Staphylococcus aureus it was 540 nM. Moreover, the IC50 in the test with Aspergillus niger turned out to be 2140 nM; in the test with Candida albicans (read-out: IC50), 1850 nM; in the test with Pseudomonas aeruginosa it was 600 nM.

With `C/C(=N/NC(=S)N1CCNCC1)c1ccccc1`, the IC50 is 1170 nM with Vibrio cholerae; 290 nM in the test with HBL-100 [2]; 1780 nM in the test with Bacillus subtilis (read-out: IC50); 1760 nM in the test on Escherichia coli; 2070 nM in the test with Staphylococcus aureus; 3760 nM in the test on Aspergillus niger. Further, the IC50 in the test on Candida albicans (read-out: IC50) amounted to 3750 nM; in the test with Pseudomonas aeruginosa, 2110 nM.

For the molecule `S=C(N/N=C/c1ccccc1)N1CCNCC1`, the IC50 came to 63000 nM with HL-60; 2230 nM in the test with Vibrio cholerae; 2410 nM in the test on HBL-100 [2]; 930 nM with Bacillus subtilis (read-out: IC50); 3910 nM with Escherichia coli; 1360 nM in the test with Staphylococcus aureus. Besides, the IC50 in the test with Aspergillus niger was determined as 2210 nM; in the test with Candida albicans (read-out: IC50), 1850 nM; in the test on Pseudomonas aeruginosa it was 1970 nM.

As to `C/C(=N\NC(=S)N1CCNCC1)c1ccc(Cl)cc1`, the IC50 in the test on Vibrio cholerae amounted to 780 nM; in the test on HBL-100 [2], 260 nM; in the test with Bacillus subtilis (read-out: IC50), 980 nM; in the test with Escherichia coli it was 880 nM; in the test on Staphylococcus aureus it was 1040 nM; in the test on Aspergillus niger it was 3320 nM. Besides, the IC50 in the test with Candida albicans (read-out: IC50) stood at 3370 nM; with Pseudomonas aeruginosa it was 710 nM.

As to `Cc1ccc(/C=N/NC(=S)N2CCNCC2)cc1`, the IC50 with HL-60 stood at 70000 nM; with Vibrio cholerae, 3570 nM; with HBL-100 [2], 800 nM; in the test with Bacillus subtilis (read-out: IC50) it was 1700 nM; with Escherichia coli, 1740 nM; with Staphylococcus aureus, 1660 nM. The IC50 with Aspergillus niger came to 3790 nM; with Candida albicans (read-out: IC50), 3720 nM; with Pseudomonas aeruginosa, 1700 nM.

Turning to `S=C(NN=C(c1ccccc1)c1ccccc1)N1CCNCC1`, the IC50 with Vibrio cholerae is 1380 nM; in the test on HBL-100 [2] it was 340 nM; in the test on Bacillus subtilis (read-out: IC50), 1380 nM; in the test on Escherichia coli it was 3030 nM; in the test with Staphylococcus aureus, 1330 nM; in the test with Aspergillus niger it was 1620 nM. Besides, the results for the IC50 in the test on Candida albicans (read-out: IC50) and with Pseudomonas aeruginosa were 1470 nM and 1440 nM, respectively.

In the case of `O=C(O)c1cn(C2CC2)c2cc(N3CCNCC3)c(F)cc2c1=O` [CIPROFLOXACIN], the IC50 in the test on Vibrio cholerae stood at 200 nM; in the test on Bacillus subtilis, 4700 nM; in the test on Staphylococcus aureus it was 1200 nM; in the test with Pseudomonas aeruginosa it was 50 nM.

`OC(Cn1cncn1)(Cn1cncn1)c1ccc(F)cc1F` [FLUCONAZOLE]: the figures for the IC50 with Aspergillus niger and with Candida albicans were more than 10000 nM and 980 nM, respectively.

In the case of `CN(Cc1cnc2nc(N)nc(N)c2n1)c1ccc(C(=O)N[C@@H](CCC(=O)O)C(=O)O)cc1` [METHOTREXATE], inhibition in the test on HBL-100 [2] was half-maximal at 40 nM (IC50).

Usually IC50 stands for the midpoint of a concentration-inhibition curve.
